US20140316119A1, “COMPOSITION FOR IMPROVING BIOMETABOLISM PARAMETER” (MATSUTANI CHEMICAL INDUSTRY CO., LTD., priority 2011, published 2014)

Legend:
[1] = system: γ-GTP, ALT, ALP, and a uric acid level; assay: Clinical trial, 12-week D-psicose ingestion (Example 1); assay type: in vivo, human
Protocol: Increasing incidence of lifestyle-related diseases, diabetes in particular, has been a problem in Japan. Clinical trials were conducted with recruited diabetic subjects, and biometabolism parameter changes due to D-psicose were investigated. The recruited subjects consisted of diabetes borderline subjects (12 subjects with fasting glucose levels of 110 to 126 mg/dl), and diabetes patients (6 type 2 diabetes patients undergoing drug treatment) (all subjects, males and females, were at least 20 years of age at the time of informed consent). Five grams of D-psicose was ingested per meal for 12 weeks. The D-psicose was purchased from Izumoring Co., Ltd. The subjects were tested after 0, 2, 4, 8, and 12 weeks from the start of the ingestion, and after 4 weeks from the end of the ingestion period (week 16, post-ingestion observation). The subjects were fasted after the dinner served on the day before the testing date. The subjects were measured for γ-GTP, ALT, ALP, and a uric acid level using the service of BML Inc. A paired t-test was used for statistical comparison before and after the ingestion. In the figure, significant difference is given by *:0.05<P or **:0.01<P.

[2] = oral ingestion, cited from earlier work
γ-GTP, ALT, and ALP = assay: Four-week D-psicose ingestion tests (Example 2); assay type: in vivo, human; details: 15 g once per day, after 2 weeks
Protocol: Four-week D-psicose ingestion tests were conducted with recruited healthy individuals (8 individuals with a […]) and diabetes borderline subjects (6 individuals with fasting glucose levels of 110 to 126 mg/dl, or HbA1c of 5.9 to 6.5%) (all subjects, males and females, were at least 20 years of age at the time of informed consent). Each subject ingested 15 g of D-psicose once per day. The D-psicose was purchased from Izumoring Co., Ltd. The subjects were tested after 0, 2, and 4 weeks from the start of the ingestion, and after 4 weeks from the end of the ingestion period (week 8, post-ingestion observation). The subjects were fasted after the dinner served on the day before the testing date. The subjects were measured for γ-GTP, ALT, and ALP by using the service of BML Inc. A paired t-test was used for statistical comparison before and after the ingestion. In the figure, significant difference is given by *:0.05<P or **:0.01<P.

[3] = healthy individuals + diabetes borderline subjects
[4] = stratified: healthy individuals, P<0.01

## O=C(CO)[C@H](O)[C@H](O)[C@H](O)CO [D-psicose]
[1]; 5 g per meal for 12 weeks
  ALT change: lack of significant decrease
[1]; all subjects (diabetes borderline + diabetes patients), 5 g D-psicose per meal, after 4 weeks from the ingestion, paired t-test vs before ingestion
  γ-GTP change: significantly decreased
[1]; all subjects, 5 g D-psicose per meal, after 2 weeks from the ingestion
  ALP change: significant decrease
[1]; all subjects, 5 g per meal, after two weeks from the ingestion
  uric acid level change: significant decrease
[1]; stratified: diabetes borderline patients, after 2 weeks
  uric acid level change: significant decrease
[1]; stratified: diabetes borderline patients, after 2 weeks, P<0.05
  ALP change: significantly decreased
[1]; stratified: diabetes borderline patients, after 4 weeks, P<0.01
  γ-GTP change: significant decrease
[1]; stratified: diabetes patients, after 2 weeks, P<0.05
  ALP change: significantly decreased
[1]; stratified: diabetes patients, after 8 weeks, P<0.01
  γ-GTP change: significant decrease
[2]
  share of ingested D-psicose directly absorbed but excreted into urine: 70%
[2]; essentially not utilized by enteric bacteria
  share of ingested D-psicose that reaches the large intestine, excreted into feces: 30%
γ-GTP, ALT, and ALP; [3]
  ALP change: significantly decreased
  ALT change: significantly decreased
  γ-GTP change: significantly decreased
γ-GTP, ALT, and ALP; [4]
  ALP change: significant decrease
  γ-GTP change: significant decrease
